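Values below derive from 48-hour exposures of cells grown in 96-well plates, with endpoints linearly interpolated between the two concentrations bracketing the appropriate inhibition level. TGI: total growth inhibition.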
Columns and labels:
Test in all cases: NCI tumour cell line growth inhibition, 48 h
A498 renal = system: A498 renal
A549 NSCLC = system: A549 NSCLC
CCRF-CEM leukemia = system: CCRF-CEM leukemia
COLO 205 colon = system: COLO 205 colon
DLD-1 colon = system: DLD-1 colon
DMS 114 small cell lung = system: DMS 114 small cell lung
DMS 273 small cell lung = system: DMS 273 small cell lung
EKVX NSCLC = system: EKVX NSCLC
HCC-2998 colon = system: HCC-2998 colon
HCT-116 colon = system: HCT-116 colon
HCT-15 colon = system: HCT-15 colon
HL-60(TB) leukemia = system: HL-60(TB) leukemia
HOP-18 NSCLC = system: HOP-18 NSCLC
HOP-62 NSCLC = system: HOP-62 NSCLC
HOP-92 NSCLC = system: HOP-92 NSCLC
HT29 colon = system: HT29 colon
IGROV1 ovarian = system: IGROV1 ovarian
K-562 leukemia = system: K-562 leukemia
KM12 colon = system: KM12 colon
KM20L2 colon = system: KM20L2 colon
LOX IMVI melanoma = system: LOX IMVI melanoma
M19-MEL melanoma = system: M19-MEL melanoma
MALME-3M melanoma = system: MALME-3M melanoma
MCF7 breast = system: MCF7 breast
MOLT-4 leukemia = system: MOLT-4 leukemia
NCI-H226 lung = system: NCI-H226 lung
NCI-H23 lung = system: NCI-H23 lung
NCI-H460 lung = system: NCI-H460 lung
NCI-H522 lung = system: NCI-H522 lung
NCI/ADR-RES ovarian = system: NCI/ADR-RES ovarian
OVCAR-3 ovarian = system: OVCAR-3 ovarian
OVCAR-4 ovarian = system: OVCAR-4 ovarian
OVCAR-5 ovarian = system: OVCAR-5 ovarian
OVCAR-8 ovarian = system: OVCAR-8 ovarian
P388 leukemia = system: P388 leukemia
P388/ADR leukemia = system: P388/ADR leukemia
RPMI-8226 leukemia = system: RPMI-8226 leukemia
RXF 393 renal = system: RXF 393 renal
SF-268 CNS = system: SF-268 CNS
SF-295 CNS = system: SF-295 CNS
SF-539 CNS = system: SF-539 CNS
SK-MEL-2 melanoma = system: SK-MEL-2 melanoma
SK-MEL-28 melanoma = system: SK-MEL-28 melanoma
SK-MEL-5 melanoma = system: SK-MEL-5 melanoma
SK-OV-3 ovarian = system: SK-OV-3 ovarian
SN12C renal = system: SN12C renal
SN12K1 renal = system: SN12K1 renal
SNB-19 CNS = system: SNB-19 CNS
SNB-75 CNS = system: SNB-75 CNS
SNB-78 CNS = system: SNB-78 CNS
SW-620 colon = system: SW-620 colon
U251 CNS = system: U251 CNS
UACC-257 melanoma = system: UACC-257 melanoma
UACC-62 melanoma = system: UACC-62 melanoma
UO-31 renal = system: UO-31 renal
XF 498 CNS = system: XF 498 CNS

## Cc1ccc(C#CS(=O)(=O)C(F)(F)F)cc1
A498 renal
  TGI: > 100 µM
A549 NSCLC
  TGI: > 100 µM
CCRF-CEM leukemia
  TGI: > 100 µM
COLO 205 colon
  TGI: > 100 µM
DLD-1 colon
  TGI: > 100 µM
DMS 114 small cell lung
  TGI: > 100 µM
DMS 273 small cell lung
  TGI: > 100 µM
EKVX NSCLC
  TGI: > 100 µM
HCC-2998 colon
  TGI: > 100 µM
HCT-116 colon
  TGI: > 100 µM
HCT-15 colon
  TGI: > 100 µM
HL-60(TB) leukemia
  TGI: > 31.6 µM
HOP-18 NSCLC
  TGI: > 100 µM
HOP-62 NSCLC
  TGI: > 100 µM
HOP-92 NSCLC
  TGI: > 100 µM
HT29 colon
  TGI: > 100 µM
IGROV1 ovarian
  TGI: > 100 µM
K-562 leukemia
  TGI: > 100 µM
KM12 colon
  TGI: > 100 µM
KM20L2 colon
  TGI: > 100 µM
LOX IMVI melanoma
  TGI: > 31.6 µM
M19-MEL melanoma
  TGI: > 100 µM
MALME-3M melanoma
  TGI: > 100 µM
MCF7 breast
  TGI: > 100 µM
MOLT-4 leukemia
  TGI: > 100 µM
NCI-H226 lung
  TGI: > 100 µM
NCI-H23 lung
  TGI: > 100 µM
NCI-H460 lung
  TGI: > 100 µM
NCI-H522 lung
  TGI: > 100 µM
NCI/ADR-RES ovarian
  TGI: > 100 µM
OVCAR-3 ovarian
  TGI: > 100 µM
OVCAR-4 ovarian
  TGI: > 100 µM
OVCAR-5 ovarian
  TGI: > 100 µM
OVCAR-8 ovarian
  TGI: > 100 µM
P388 leukemia
  TGI: > 100 µM
P388/ADR leukemia
  TGI: > 100 µM
RPMI-8226 leukemia
  TGI: > 100 µM
RXF 393 renal
  TGI: > 100 µM
SF-268 CNS
  TGI: > 100 µM
SF-295 CNS
  TGI: > 31.6 µM
SF-539 CNS
  TGI: > 100 µM
SK-MEL-2 melanoma
  TGI: > 100 µM
SK-MEL-28 melanoma
  TGI: > 100 µM
SK-MEL-5 melanoma
  TGI: > 100 µM
SK-OV-3 ovarian
  TGI: > 100 µM
SN12C renal
  TGI: > 100 µM
SN12K1 renal
  TGI: > 100 µM
SNB-19 CNS
  TGI: > 100 µM
SNB-75 CNS
  TGI: > 100 µM
SNB-78 CNS
  TGI: > 100 µM
SW-620 colon
  TGI: > 100 µM
U251 CNS
  TGI: > 100 µM
UACC-257 melanoma
  TGI: > 100 µM
UACC-62 melanoma
  TGI: > 100 µM
UO-31 renal
  TGI: > 100 µM
XF 498 CNS
  TGI: > 100 µM

From PubChem BioAssay (NCI)
